{"source": "patent US7259000B2", "about": "“Polynucleotides encoding chimeric chemokine receptors” (Bristol-Myers Squibb Company, priority 2003, dated 2007)", "key": {"CCR3/2 chimera": {"biological_target": "T1, CCR3/2 chimera (Homo sapiens, UniProt P51677)", "T1 construct": "The total length of the CCR3/2 chimeric molecule described herein is 356 amino acids; CCR2B cytoplasmic tail (fusion partner replacing the CCR3 C terminus); expressed in transfected cells", "T1 sequence (P51677 with tags, fused parts or gaps)": "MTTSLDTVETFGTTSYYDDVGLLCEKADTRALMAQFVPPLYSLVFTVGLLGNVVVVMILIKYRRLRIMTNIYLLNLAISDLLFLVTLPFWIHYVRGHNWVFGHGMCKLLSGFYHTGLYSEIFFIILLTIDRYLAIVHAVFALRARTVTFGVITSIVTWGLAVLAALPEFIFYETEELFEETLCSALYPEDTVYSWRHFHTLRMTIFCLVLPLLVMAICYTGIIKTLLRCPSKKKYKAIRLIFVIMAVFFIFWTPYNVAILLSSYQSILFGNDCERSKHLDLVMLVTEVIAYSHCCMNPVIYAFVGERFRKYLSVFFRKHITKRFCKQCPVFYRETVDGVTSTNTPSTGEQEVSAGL", "experiment": "125I-eotaxin binding assay on CHO CCR3/2 clone 5.5 cells", "description": "(§1) In order to compare the ability of cells expressing chimeric human CCR3/2 molecules to that of cells expressing endogenous human CCR3 to bind eotaxin, a binding assay was performed. Depending upon the questions being asked, the cells in question were either human or mouse eosinophils, CHO-K1 cells expressing recombinant CCR3 or CCR3/2, parental CHO-K1 cells or other cell types. All assay steps were conducted at room temperature. Multiscreen assay plates (#MABVN1250, Millipore Inc., Marlborough, Mass.) were incubated with 100 μl/well of blocking solution (7.5 μg/ml protamine in PBS) to block non-specific binding. After 20 minutes, the blocking solution was removed and replaced with 100 μl of binding buffer, (RPMI 1640 (Life Technologies, Grand Island, N.Y.) containing 0.1% bovine serum albumin and 20 mM HEPES buffer) and incubated for at least an additional 10 minutes.\n(§2) When ready to use plate(s), the following procedure was employed. Remove the binding buffer and add the following to the well types indicated:\n(§3) to TOTAL binding wells add 50 μl of binding buffer;\n(§4) to NON-SPECIFIC binding wells add 50 μl of unlabeled human eotaxin to 100 nM and 1000 nM final concentration (recombinant human eotaxin—#320-EO/CF, R&D Systems, Minneapolis, Minn.) in 50 μl binding buffer; […]\n(§5) Binding data were analyzed using Microsoft EXCEL and then graphed using GRAPHPAD PRISMT™. […]"}, "CCR3": {"biological_target": "T2, CCR3 (Homo sapiens, UniProt P51677)", "T2 construct": "cells expressing endogenous human CCR3; endogenous in cells; host or cells: native human eosinophils", "T2 sequence (P51677 1-355)": "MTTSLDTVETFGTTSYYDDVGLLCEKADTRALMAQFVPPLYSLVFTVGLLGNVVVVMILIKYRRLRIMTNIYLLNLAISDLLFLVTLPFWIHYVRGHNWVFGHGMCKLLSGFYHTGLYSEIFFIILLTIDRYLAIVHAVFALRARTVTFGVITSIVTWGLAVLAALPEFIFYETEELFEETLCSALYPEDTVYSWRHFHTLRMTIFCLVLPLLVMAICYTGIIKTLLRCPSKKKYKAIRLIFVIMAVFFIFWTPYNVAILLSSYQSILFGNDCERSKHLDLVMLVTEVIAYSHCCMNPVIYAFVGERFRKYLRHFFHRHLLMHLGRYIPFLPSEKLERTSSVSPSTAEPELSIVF", "experiment": "125I-eotaxin binding assay on human eosinophils", "settings": "native human eosinophils; 0.15 nM 125I-labeled human eotaxin; room temperature", "description": "as §1, §2, §3, §4, §5"}, "chimeric CCR3/2 receptor": {"biological_target": "T3, chimeric CCR3/2 receptor (Homo sapiens, UniProt P51677)", "T3 construct": "The total length of the CCR3/2 chimeric molecule described herein is 356 amino acids; CCR2B cytoplasmic tail (fusion partner replacing the CCR3 C terminus); expressed in transfected cells", "T3 sequence (P51677 with tags, fused parts or gaps)": "T1 sequence (P51677 with tags, fused parts or gaps)", "experiment": "phospho-ERK western blot after eotaxin stimulation of CHO CCR3/2 clone 5.5 cells", "type": "cell-based", "settings": "nanomolar eotaxin", "from_the_text": "Part of the downstream signalling cascade involves the activity of kinases (proteins that add phosphate groups to specific residues in cellular proteins, thereby causing them to take on new activities and cellular roles). In the present Example, the phosphorylation of Erk (a member of a protein kinase signalling cascade) is considered to be an indication that binding of eotaxin at the cell surface is recognized by the cell signalling machinery that lies within the cytoplasm and nucleus.\nThus, the present invention further provides that a chimeric chemokine receptor (e.g., the chimeric CCR3/2 receptor) when expressed in cells is capable of downstream signalling when binding to its cognate ligand (e.g., eotaxin). Such downstream signalling involves the MAP kinase pathway, more specifically, the phosphorylation of Erk1 and Erk2 subsequent to binding of eotaxin by either CCR3 or CCR3/2.\nAnalysis of cell stimulation for phospho-ERK analysis by western blotting was done as previously described (Scherle et al., (1998) J. Immunol. 161(10):5681-86) with the exception that cells were specifically stimulated by exposure to eotaxin (nanomolar exposures to eotaxin listed on the bottoms of FIGS. 7A and 7B) instead of the more generic stimulant lipopolysaccharide as described in Sherle et al. (Scherle et al., (1998) J. Immunol. 161(10):5681-86)."}}, "note": "“Also recorded” adds a separate entry of the source.", "data": [{"compound": "C[C@@H](NC(=O)Nc1cccc(-c2nnnn2C)c1)[C@@H](O)CN1CCC[C@@H](Cc2ccc(F)cc2)C1", "note": "[Compound 1, N-{(1R,2S)-3-[(3S)-3-(4-fluorobenzyl)-1-piperidinyl]-2-hydroxy-1-methylpropyl}-N′-[3-(1-methyl-1H-tetraazol-5-yl)phenyl]urea]", "values": [{"measurement": "competition with labeled eotaxin for binding (drug inhibition curve)", "setting": "CCR3/2 chimera; CHO CCR3/2 clone 5.5, 0.15 nM 125I-labeled human eotaxin, room temperature", "result": "comparable; also recorded: compete with eotaxin for binding"}, {"measurement": "competition with labeled eotaxin for binding (drug inhibition curve)", "setting": "CCR3", "result": "comparable"}]}, {"compound": "eotaxin: recombinant human eotaxin, chemokine peptide ligand of CCR3 (R&D Systems #320-EO/CF; 125I-labeled form from Perkin Elmer)", "values": [{"measurement": "eotaxin binding", "setting": "CCR3/2 chimera; CHO cells expressing human CCR3/2", "result": "high levels of specific eotaxin binding; also recorded: high affinity"}, {"measurement": "Erk phosphorylation (downstream signalling) on exposure to eotaxin", "setting": "chimeric CCR3/2 receptor", "result": "able to transmit a signal"}]}]}
